# Molecular target: T1, Sortase A (Staphylococcus aureus, UniProt Q9S446)
# T1 sequence (Q9S446 whole entry): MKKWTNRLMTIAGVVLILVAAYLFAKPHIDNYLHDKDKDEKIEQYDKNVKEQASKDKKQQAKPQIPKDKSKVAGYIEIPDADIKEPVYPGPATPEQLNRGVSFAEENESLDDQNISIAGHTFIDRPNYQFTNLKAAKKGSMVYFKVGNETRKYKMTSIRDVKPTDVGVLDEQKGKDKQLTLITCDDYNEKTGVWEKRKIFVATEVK
# Assay: Inhibitory activity towards SrtA (sortase A)
row,Compound,IC50 [µM]
1,COc1ccc(/C=C(\C#N)c2ccc(OC)cc2)cc1,27.9
2,COc1ccc(/C=C\c2ccc(OC)cc2)cc1,> 1000
3,COc1ccc(/C(C#N)=C/c2ccc(OC)c(OC)c2)cc1,23
4,COC(=O)/C(=C\c1ccc(OC)cc1)c1ccc(OC)cc1,909
5,COc1ccc(/C=C(/C#N)c2ccc(OC)cc2)cc1,187
6,COc1ccc(/C=C/c2ccc(OC)cc2)cc1,> 1000
7,COc1ccc(/C(C#N)=C/c2cc(OC)cc(OC)c2)cc1,25.5
8,COC(=O)C(Cc1ccc(OC)cc1)c1ccc(OC)cc1 (stereo unspecified),> 1000
9,COc1ccc(/C(C#N)=C/c2ccccc2OC)cc1,36.2
10,COc1ccc(/C=C(/C(=O)O)c2ccc(OC)cc2)cc1,> 1000
11,COc1ccc(/C(C#N)=C/c2cc(OC)ccc2OC)cc1,9.24
12,COC(=O)/C(=C/c1ccc(OC)cc1)c1ccc(OC)cc1,231
13,COc1ccc(/C(C#N)=C/c2cccc(OC)c2)cc1,17.4
14,COc1ccc(CC(C#N)c2ccc(OC)cc2)cc1 (stereo unspecified),> 1000
15,COc1ccc(CCc2ccc(OC)cc2)cc1,> 1000
16,COc1ccc(/C=C(/C(N)=O)c2ccc(OC)cc2)cc1,476
